From patent US4452793A, “29-Fluorophytosterol termiticides, compositions and methods of use therefor” (The Research Foundation of State University of New York, priority 1983, dated 1984)
≈ marks a conversion by molar mass, not a printed value.

Tests used:
Manduca sexta [1] = assay: Sterol distribution in experimental hornworms (capillary GC of gut-purged prepupae); assay type: in vivo, tobacco hornworm (Manduca sexta); conditions: fed at 50 ppm in diet; mean relative area % of GC, 4 hornworms, S.D. in parentheses
Description: (§1) The recrystallized 29-fluorosterols are dissolved in dichloromethane and then coated onto the wheat germ to give a final concentration to 50 ppm (w/v) in the articifical diet. Controls receive either 50 ppm of stigmasterol or no additional sterols. The dose are varied in subsequent experiments. Twenty first instar tobacco hornworms larvae (Manduca sexta, seventh day after egg collection) are then placed on a 0.5-g slab of diet in a 1-oz dish; this is designated as Day 0 of feeding. Larvae were maintained at 65% relative humidity and 26° C. on a 17L/7D long day light regime. Diets are changed and larvae are weighed and staged daily. The mean survival, weight gain, and developmental periods of the experimental hornworms are shown relative to a group of twenty control larvae in FIG. 1.
Four gut-purged prepupae from each experiment are frozen and later are analyzed individually for sterol composition. Each hornworm is homogenized (1:1 chloroform-methanol), the lipids is saponified, and the non-saponifiable lipis are chromatographed to give the sterol fraction. Analysis by capillary GC (Durabon DB-5 or DB-1701) allowed resolution an accurate quantification of cholesterol, desmosterol, campesterol, stiosterol and fucosterol from test insects. The results, present in Table 1, illustrate the insect metabolism.

Manduca sexta [2] = assay: Insecticide bioassay of 29-fluorophytosterols in tobacco hornworm larvae (artificial diet); assay type: in vivo, tobacco hornworm (Manduca sexta); conditions: for LC50: Manduca sexta, po, 504 h, day 21, read-out: Dose for 50% reduction, survival (larvae, day 21) (LC50); for LC50 / Dose for 50% reduction, maximum larval weight (EC50) / Dose for 50% reduction, pupation (EC50): parts per million (w/v) in the final diet
Description: as §1
Inequality signs indicate that the effect indicated was beyond the range of doses tested and could not be reliably obtained by extrapolation of the log concentration vs. probit response plots. All values are reported as parts per million (w/v) in the final diet.

Which results are given for CC(C)[C@H](CCF)CC[C@@H](C)[C@H]1CC[C@H]2[C@@H]3CC=C4C[C@@H](O)CC[C@]4(C)[C@H]3CC[C@]12C [29-fluorositosterol]?
Relative percent sterol: campesterol (Manduca sexta [1]): 7.8(3) %; Relative percent sterol: cholesterol (Manduca sexta [1]): 82.4(8) %; Relative percent sterol: desmosterol (Manduca sexta [1]): 5.2(8) %; Relative percent sterol: sitosterol (Manduca sexta [1]): 4.6(4) %; LC50 (Manduca sexta [2]): 300 µg/mL (≈ 693 µM); Dose for 50% reduction, maximum larval weight (EC50) (Manduca sexta [2]): 110 ppm; Dose for 50% reduction, pupation (EC50) (Manduca sexta [2]): 150 ppm

How did the “Relative percent sterol: campesterol” value (Manduca sexta [1]) turn out when CC(C)[C@H](/C=C/[C@@H](C)[C@H]1CC[C@H]2[C@@H]3CC=C4C[C@@H](O)CC[C@]4(C)[C@H]3CC[C@]12C)CCF [29-fluoroporiferasterol] was run?
Its value is 16.3(2) %.

What about the “Relative percent sterol: cholesterol” value (Manduca sexta [1]) of the same compound?
The value was 65.6(8) %.

And the “Relative percent sterol: desmosterol” value (Manduca sexta [1])?
Its value is 5.8(2) %.

What about the “Relative percent sterol: sitosterol” value (Manduca sexta [1]) of the same compound?
Its value is 12.3(5) %.

Which “Relative percent sterol: campesterol” value (Manduca sexta [1]) does the source give for CC(C)[C@@H](CCF)CC[C@@H](C)[C@H]1CC[C@H]2[C@@H]3CC=C4C[C@@H](O)CC[C@]4(C)[C@H]3CC[C@]12C [29-fluoroclionosterol] here?
Its value is 9.5(1) %.

And the “Relative percent sterol: cholesterol” value (Manduca sexta [1])?
The value was 82.5(2) %.

And the “Relative percent sterol: desmosterol” value (Manduca sexta [1])?
Its value is 2.0(2) %.

And the “Relative percent sterol: sitosterol” value (Manduca sexta [1])?
Its value is 5.9(1) %.

Which “Relative percent sterol: campesterol” value (Manduca sexta [1]) does the source give for CC(C)/C(=C/CF)CC[C@@H](C)[C@H]1CC[C@H]2[C@@H]3CC=C4C[C@@H](O)CC[C@]4(C)[C@H]3CC[C@]12C [29-fluorofucosterol] here?
The value was 10.0(2) %.

What about the “Relative percent sterol: cholesterol” value (Manduca sexta [1]) of the same compound?
Its value is 82.2(2) %.

What about the “Relative percent sterol: desmosterol” value (Manduca sexta [1]) of the same compound?
Its value is 1.0(1) %.

And the “Relative percent sterol: sitosterol” value (Manduca sexta [1])?
The value was 5.8(2) %.

And the LC50 (Manduca sexta [2])?
The LC50 was 48 µg/mL (≈ 111 µM).

What about the “Dose for 50% reduction, maximum larval weight (EC50)” value (Manduca sexta [2]) of the same compound?
The value was 26 ppm.

What about the “Dose for 50% reduction, pupation (EC50)” value (Manduca sexta [2]) of the same compound?
Its value is 31 ppm.

CC(C)[C@@H](/C=C/[C@@H](C)[C@H]1CC[C@H]2[C@@H]3CC=C4C[C@@H](O)CC[C@]4(C)[C@H]3CC[C@]12C)CCF [29-fluorostigmasterol] was tested. Which LC50 (Manduca sexta [2]) did it give?
Its LC50 is 4 µg/mL (≈ 9.29 µM).

What about the “Survivors present for analysis” value (Manduca sexta [2]; hornworms fed at 50 ppm) of the same compound?
Its value is “No survivors”.

And the “Dose for 50% reduction, maximum larval weight (EC50)” value (Manduca sexta [2])?
Its value is 1 ppm.

And the “Dose for 50% reduction, pupation (EC50)” value (Manduca sexta [2])?
The value was 1 ppm.
